The text below walks through data of patent US20220409733A1, “COMPOSITIONS AND METHODS FOR TREATING CANCER” (priority 2019, published 2022).

In one test the test system is A2780-CP cells. Nature of the test: CCK-8 assay of cDDP cytotoxicity in Pt resistant A2780-CP cells. As to conditions: 1 h cDDP exposure. The format is cell-based. The method, then:
(§1) FIG. 1B: CCK-8 assay of A2780, A2780-CP and A2780-CP cells pre-incubated for 24 h with APP antisense oligonucleotides (A2780ONS) during a 1 h exposure to increasing concentrations of cDDP.

The next test deals with A2780 cells. Nature of the test: CCK-8 assay of cDDP cytotoxicity in parental A2780 cells. The format is cell-based. As to conditions: parental A2780 cell line, 1 h cDDP exposure. As for the experimental part:
as §1

A further test has as its target APP (Homo sapiens, UniProt P05067). As to conditions: in vivo and in vitro; cited from earlier work.

Where two headings read alike, the source gives them in different places.

Chain of APP (P05067 18-770): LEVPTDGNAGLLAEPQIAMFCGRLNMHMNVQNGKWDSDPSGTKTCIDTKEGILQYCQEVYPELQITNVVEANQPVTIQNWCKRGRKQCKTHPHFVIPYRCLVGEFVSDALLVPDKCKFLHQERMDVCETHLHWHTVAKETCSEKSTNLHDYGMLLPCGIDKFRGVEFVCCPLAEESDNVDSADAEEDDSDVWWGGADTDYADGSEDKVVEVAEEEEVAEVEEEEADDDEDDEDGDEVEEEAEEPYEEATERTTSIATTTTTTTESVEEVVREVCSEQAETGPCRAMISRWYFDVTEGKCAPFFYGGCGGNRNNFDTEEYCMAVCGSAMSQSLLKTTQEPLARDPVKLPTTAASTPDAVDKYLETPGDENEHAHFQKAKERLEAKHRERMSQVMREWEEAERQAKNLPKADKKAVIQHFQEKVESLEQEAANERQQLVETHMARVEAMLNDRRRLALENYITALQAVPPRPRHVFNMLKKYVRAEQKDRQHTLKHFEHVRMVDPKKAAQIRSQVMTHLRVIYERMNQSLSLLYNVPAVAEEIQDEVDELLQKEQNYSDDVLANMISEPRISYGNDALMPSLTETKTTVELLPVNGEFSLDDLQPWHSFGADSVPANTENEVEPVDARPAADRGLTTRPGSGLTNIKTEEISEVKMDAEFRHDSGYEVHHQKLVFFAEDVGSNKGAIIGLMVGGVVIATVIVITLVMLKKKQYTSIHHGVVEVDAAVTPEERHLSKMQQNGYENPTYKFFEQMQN

Consider `[NH2][Pt]([NH2])([Cl])[Cl]` [cDDP, Cisplatin], for which the IC50 (in general, the concentration that inhibits the measured activity by half) amounted to 12.1 ± 0.3 µM in the test on A2780-CP cells (A2780-CP cells pre-treated overnight with 25 μM APP ONS, read-out: IC50 of cDDP following APP downregulation); 63.2 ± 1.9 µM in the test with A2780-CP cells (A2780-CP cells, no APP downregulation, read-out: IC50 of cDDP); 10.2 ± 0.32 µM in the test with A2780 cells.

As for “-cdkc pagtyvsehc tntslrvcss cpvgtftr- (SEQ ID NO:1) [DR6 peptide]”, the “Binding to APP” value at APP is reported as “high affinity”.
